Reference: US20070015663A1, “Growth regulator and process for growth regulation of plant” (SUPER BLAST SYSTEMS CO., LTD., priority 2001, published 2007)
Read-outs that look alike come from different tables or passages of the source.

How the values were obtained:
tomato = experiment: Germination and seedling growth of tomato on absorbent cotton with test solution; type: in vivo, tomato (Lycopersicon esculentum)
Method: (§1) Absorbent cotton was spread on a 4.5 cm dish, and thereto was added 10 ml of a test solution. Seeds (10 seeds) were added thereto, grown at 23° C. for 4 days in the dark, and thereafter cultured at 23° C. for 3 days in the light (about 3000 lux).
FIG. 3 is a drawing illustrating the state of germination within each of the dishes similarly to FIG. 1. FIG. 4 is a drawing comparing the length of each embryonic axis (shoot) and that of each root similarly to FIG. 2.
FIG. 11 is a drawing illustrating the state of seeds within each of the dishes similarly to FIG. 1, and each control is shown. […] In addition, the lengths of each shoot and root are presented.
(§2) Indole-3-acetate (IAA) was used as the auxin.

Veronica persica Poir = experiment: Germination and seedling growth of Veronica persica Poir with test solution; type: in vivo
Method: as §1
FIG. 10 is a drawing illustrating the state of seeds within each of the dishes similarly to FIG. 1, and each control is shown. […] In addition, the lengths of each embryonic axis shoots and root are indicated.
as §2

lettuce [1] = tested on: lettuce
Method: For control 1, absorbent cotton was spread on a 4.5 cm dish, and thereto was added 10 ml of water. Seeds (10 seeds) were added thereto, grown at 23° C. for 4 days in the dark, and thereafter cultured at 23° C. for 3 days in the light (about 3000 lux).

radish = tested on: radish
Method: as §1

lettuce [2] = tested on: lettuce; remark: listed apart in the source
Method: as §1

rice = conditions: 23° C. 4 days dark + 3 days light
Method: as §1
FIG. 1 is a drawing illustrating the state of seeds within each of the dishes. FIG. 2 is a drawing comparing the length of each shoot and the length of each root. […] For reference, the length of the label is 5 mm.

perennial ryegrass = tested on: perennial ryegrass
Method: as §1
FIG. 7 is a drawing illustrating the state of seeds within each of the dishes similarly to FIG. 1. FIG. 8 is a drawing comparing the length of each shoot and that of each root similarly to FIG. 2.

[3] = volcanic ash+0.1% NaHCO3 (100 g and 0.1% NaHCO3 solution 28 g)
[4] = volcanic ash+1% NaHCO3 (100 g and 1% NaHCO3 solution 28 g)
[5] = volcanic ash+10% NaHCO3 (100 g and saturated sodium bicarbonate solution 28 g)

## O=C(O)Cc1c[nH]c2ccccc12 [IAA, indole-3-acetate]
tomato; Example 8, IAA 10^−4 M alone
  length of the root: 30 mm
  length of the shoot: 20 mm
tomato; Example 8, IAA 10^−5 M alone
  length of the root: 41 mm
  length of the shoot: 23 mm
Veronica persica Poir; Example 9, IAA 10^−4 M alone
  length of the root: 11 mm
  length of the shoot: 8 mm
Veronica persica Poir; Example 9, IAA 10^−5 M alone
  length of the root: 22 mm
  length of the shoot: 13 mm

## O=C([O-])O.[Na+] [NaHCO3, sodium bicarbonate]
Lettuce [1]; [3]
  development of the root: 21.0±0.8 mm
  development of the shoot: 33.4±1.1 mm
Lettuce [1]; [4]
  length of the root: 5.4±1.1 mm
  length of the shoot: 26.0±1.5 mm
Lettuce [1]; [5]
  development of the root: 0 mm
  development of the shoot: 0 mm
tomato; in vivo
  germination: germination does not occur
  length of the shoot: 5 mm
radish; NaHCO3 0.003%
  length of the embryonic axis (shoot): 66.3±4.1 mm
  length of the root: 37.0±1.5 mm
radish; NaHCO3 0.01%
  length of the embryonic axis (shoot): 74.0±1.5 mm
  length of the root: 71.3±1.9 mm
radish; NaHCO3 0.03%
  length of the embryonic axis (shoot): 60.0±3.1 mm
  length of the root: 80.7±5.9 mm
radish; NaHCO3 0.1%
  length of the embryonic axis (shoot): 66.7±3.4 mm
  length of the root: 22.0±1.5 mm
radish; NaHCO3 0.3%
  length of the embryonic axis (shoot): 19.3±0.7 mm
  length of the root: 7.3±1.3 mm
radish; NaHCO3 1%
  length of the embryonic axis (shoot): 0±0 mm
  length of the root: 0±0 mm
Lettuce [2]; NaHCO3 0.003%
  length of the root: 18.7±4.7 mm
  length of the shoot: 14.0±0.6 mm
Lettuce [2]; NaHCO3 0.01%
  length of the root: 21.0±0.6 mm
  length of the shoot: 24.3±0.9 mm
Lettuce [2]; NaHCO3 0.03%
  length of the root: 14.3±1.9 mm
  length of the shoot: 24.3±0.3 mm
Lettuce [2]; NaHCO3 0.1%
  length of the root: 11.0±0.6 mm
  length of the shoot: 15.7±0.3 mm
Lettuce [2]; NaHCO3 0.3%
  length of the root: 3.7±0.3 mm
  length of the shoot: 6.7±0.3 mm
Lettuce [2]; NaHCO3 1%
  length of the root: 0±0 mm
  length of the shoot: 0±0 mm
rice; NaHCO3 0.003%
  length of the root: 32.0±9.3 mm
  length of the shoot: 11.0±1.0 mm
rice; NaHCO3 0.01%
  length of the root: 18.0±9.7 mm
  length of the shoot: 10.0±0 mm
rice; NaHCO3 0.03%
  length of the root: 23.7±0.9 mm
  length of the shoot: 15.0±1.0 mm
rice; NaHCO3 0.1%
  length of the root: 20.7±2.3 mm
  length of the shoot: 13.3±0.9 mm
rice; NaHCO3 0.3%
  length of the root: 2.3±0.3 mm
  length of the shoot: 7.3±1.5 mm
rice; NaHCO3 1%
  length of the root: 0±0 mm
  length of the shoot: 3.3±0.3 mm
Perennial ryegrass; NaHCO3 0.003%
  length of the root: 25.3±0.9 mm
  length of the shoot: 24.7±0.3 mm
Perennial ryegrass; NaHCO3 0.01%
  length of the root: 27.3±1.5 mm
  length of the shoot: 42.0±0.6 mm
Perennial ryegrass; NaHCO3 0.03%
  length of the root: 26.0±0.6 mm
  length of the shoot: 44.3±1.5 mm
Perennial ryegrass; NaHCO3 0.1%
  length of the root: 28.0±1.5 mm
  length of the shoot: 55.7±0.7 mm
Perennial ryegrass; NaHCO3 0.3%
  length of the root: 4.7±0.3 mm
  length of the shoot: 19.0±0.6 mm
Perennial ryegrass; NaHCO3 1%
  length of the root: 0±0 mm
  length of the shoot: 0±0 mm
Veronica persica Poir; in vivo
  length of the root: 9 mm
  length of the shoot: 8 mm
